From patent US20240175881A1, “SIMPLIFIED METHODS FOR MEASURING LIVER FUNCTION” (HepQuant, LLC, priority 2022, published 2024)

Legend:
[1] = system: subjects with Child-Pugh A cirrhosis and a liver stiffness measurement of >15 kPa; conditions: HepQuant SHUNT test; cited from earlier work
[2] = system: patients with well-compensated (Child-Pugh A) NASH cirrhosis; experiment: Risk ACE from simplified cholate tests (SHUNT V2.0, DuO) in open-label resmetirom arm of MAESTRO-NAFLD-1; format: in vivo, human
From the text: MAESTRO-NAFLD-1 (NCT04197479) was a 52-week Phase 3 trial to evaluate the safety and tolerability of resmetirom, a thyroid hormone receptor-β agonist being studied for the treatment of NASH. (Harrison et al., Lancet 2019, 394:2012-24). MAESTRO-NAFLD-1 included an open-label active resmetirom treatment arm in patients with well-compensated (Child-Pugh A [CP-A]) NASH cirrhosis (FIG. 23).
Methods: Subjects (n=34) with compensated NASH cirrhosis underwent baseline testing and subsequent retesting at 28 and 48 weeks. Eligibility included at least 3 metabolic risk factors and NASH cirrhosis diagnosed by liver biopsy or accepted criteria
AUCs were calculated by a compartmental model (McRae et al., 2023 Translational Res. 252:53-63). For SHUNT V2.0: IV and oral data at 20 and 60 minutes were employed. For DuO: only oral data at 20 and 60 minutes were employed.
Risk ACE was calculated for each subject from the baseline and weeks 28 and 48 disease severity index (DSI). A Poisson model (Risk ACE) estimated the annual clinical event rate based on 220 subjects with 52 clinical events from the HALT-C Trial. The result is an event rate (clinical events per person-year). • Model A: Relationship with baseline DSI (denoted by dsi0):
Y=β0+β1dsi0 • Model D: Relationship with baseline DSI and change in DSI (denoted dsiΔ)
Difference from baseline is represented by the difference of Risk ACE Model A and Model D (Table 26).

Row | SMILES | hepatic function [1] | subjects in whom Risk ACE decreased ([2]; DuO test, 28 weeks vs baseline) | subjects in whom Risk ACE decreased ([2]; DuO test, 48 weeks vs baseline) | Δ Risk ACE ([2]; DuO test, Baseline - Week 28 of resmetirom) | Δ Risk ACE ([2]; DuO test, Baseline - Week 28 of resmetirom, listed as resmetirom) | Δ Risk ACE ([2]; DuO test, Baseline - Week 48 of resmetirom) | Δ Risk ACE ([2]; DuO test, Baseline - Week 48 of resmetirom, listed as resmetirom) | subjects in whom Risk ACE decreased ([2]; SHUNT V2.0 test, 28 weeks vs baseline) | subjects in whom Risk ACE decreased ([2]; SHUNT V2.0 test, 48 weeks vs baseline) | Δ Risk ACE ([2]; SHUNT V2.0 test, Baseline - Week 28 of resmetirom) | Δ Risk ACE ([2]; SHUNT V2.0 test, Baseline - Week 28 of resmetirom, listed as resmetirom) | Δ Risk ACE ([2]; SHUNT V2.0 test, Baseline - Week 48 of resmetirom) | Δ Risk ACE ([2]; SHUNT V2.0 test, Baseline - Week 48 of resmetirom, listed as resmetirom) | estimated clinical event rate ([2]; simplified cholate tests, after 28 weeks of resmetirom)
1 | CCOc1c(C(=O)O)cnn1-c1cccc(-c2cccc(C)c2OCc2ccc3c(c2C)CCN(C2CCOCC2)C3)n1 [BI 685509] | improves hepatic function | – | – | – | – | – | – | – | – | – | – | – | – | –
2 | CC(C)c1cc(Oc2c(Cl)cc(-n3nc(C#N)c(=O)[nH]c3=O)cc2Cl)n[nH]c1=O [Resmetirom] | – | 21 of 23 | 19 of 23 | −0.0182 clinical events per person-year | significant decrease | −0.0355 clinical events per person-year | −0.0355 clinical events per person-yea | 20 of 23 | 19 of 23 | −0.0174 clinical events per person-year | −0.0170 clinical events per person-yea | −0.0325 clinical events per person-year | −0.0325 clinical events per person-yea | reduction in estimated clinical event rate
